Test results as given in the supplement of paper PMC10307832.

Assays:
Test in all cases: relative viability (nuclei count vs DMSO), 5 days (fraction); higher = more cells survive
[1] = compound: CCN(CCO)CCCC(C)Nc1ccnc2cc(Cl)ccc12 [Hydroxychloroquine] + O=C(CCCCCCC(=O)Nc1ccccc1)NO [Vorinostat] (partner 1 µM)
Summary of the method: (§1)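 Lung cancer cell lines, seeded in 1536-well plates, were treated the following day by pin tool with a single drug or with five library-drug doses (not always all listed) in √10 steps on top of a fixed anchor-drug dose. Cells were fixed and nuclei stained in one step after 5 days, and nuclei were counted. Relative viability is the nuclei count for treated wells divided by that for vehicle wells, reported as medians of duplicate plates.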

[2] = compound: CCN(CCO)CCCC(C)Nc1ccnc2cc(Cl)ccc12 [Hydroxychloroquine] + C[C@]1(O)C[C@@H](c2nc(-c3ccc4ccc(-c5ccccc5)nc4c3)c3c(N)nccn32)C1 [Linsitinib] (partner 1 µM)
Summary of the method: as §1

[3] = compound: CCN(CCO)CCCC(C)Nc1ccnc2cc(Cl)ccc12 [Hydroxychloroquine] + CC1(C)CCC(c2ccc(Cl)cc2)=C(CN2CCN(c3ccc(C(=O)NS(=O)(=O)c4ccc(N[C@H](CCN5CCOCC5)CSc5ccccc5)c(S(=O)(=O)C(F)(F)F)c4)cc3)CC2)C1 [Navitoclax] (partner 0.5 µM)
Summary of the method: as §1

[4] = compound: CCN(CCO)CCCC(C)Nc1ccnc2cc(Cl)ccc12 [Hydroxychloroquine] + Cc1nc(NC(=O)N2CCC[C@H]2C(N)=O)sc1-c1ccnc(C(C)(C)C(F)(F)F)c1 [Alpelisib] (partner 2 µM)
Summary of the method: as §1

NCI-H2405
relative viability ([1]; first compound 0.5 µM): 1.05
relative viability ([1]; first compound 1.581 µM): 0.963
relative viability ([1]; first compound 5 µM): 0.937
relative viability ([1]; first compound 15.81 µM): 1.03
relative viability ([1]; first compound 50 µM): 0.999
relative viability ([2]; first compound 0.5 µM): 0.923
relative viability ([2]; first compound 1.581 µM): 0.806
relative viability ([2]; first compound 5 µM): 0.92
relative viability ([2]; first compound 15.81 µM): 0.98
relative viability ([2]; first compound 50 µM): 0.968
relative viability ([3]; first compound 0.5 µM): 1.03
relative viability ([3]; first compound 1.581 µM): 0.753
relative viability ([3]; first compound 5 µM): 0.857
relative viability ([3]; first compound 15.81 µM): 0.914
relative viability ([3]; first compound 50 µM): 0.8
relative viability ([4]; first compound 0.5 µM): 0.961
relative viability ([4]; first compound 1.581 µM): 0.592
relative viability ([4]; first compound 5 µM): 0.879
relative viability ([4]; first compound 15.81 µM): 0.856
relative viability ([4]; first compound 50 µM): 0.845

LXF-289
relative viability ([1]; first compound 0.5 µM): 0.767
relative viability ([1]; first compound 1.581 µM): 0.795
relative viability ([1]; first compound 5 µM): 0.723
relative viability ([1]; first compound 15.81 µM): 0.757
relative viability ([1]; first compound 50 µM): 0.709
relative viability ([2]; first compound 0.5 µM): 0.986
relative viability ([2]; first compound 1.581 µM): 0.985
relative viability ([2]; first compound 5 µM): 0.992
relative viability ([2]; first compound 15.81 µM): 0.995
relative viability ([2]; first compound 50 µM): 1
relative viability ([3]; first compound 0.5 µM): 0.956
relative viability ([3]; first compound 1.581 µM): 0.986
relative viability ([3]; first compound 5 µM): 0.983
relative viability ([3]; first compound 15.81 µM): 0.948
relative viability ([3]; first compound 50 µM): 0.999
relative viability ([4]; first compound 0.5 µM): 1
relative viability ([4]; first compound 1.581 µM): 1
relative viability ([4]; first compound 5 µM): 1.06
relative viability ([4]; first compound 15.81 µM): 1.03
relative viability ([4]; first compound 50 µM): 1.11

CAL-12T
relative viability ([1]; first compound 0.5 µM): 0.865
relative viability ([1]; first compound 1.581 µM): 0.725
relative viability ([1]; first compound 5 µM): 0.684
relative viability ([1]; first compound 15.81 µM): 0.873
relative viability ([1]; first compound 50 µM): 0.979
relative viability ([2]; first compound 0.5 µM): 0.916
relative viability ([2]; first compound 1.581 µM): 0.75
relative viability ([2]; first compound 5 µM): 0.773
relative viability ([2]; first compound 15.81 µM): 0.866
relative viability ([2]; first compound 50 µM): 0.886
relative viability ([3]; first compound 0.5 µM): 1.06
relative viability ([3]; first compound 1.581 µM): 1.22
relative viability ([3]; first compound 5 µM): 1.21
relative viability ([3]; first compound 15.81 µM): 1.23
relative viability ([3]; first compound 50 µM): 1.23
relative viability ([4]; first compound 0.5 µM): 1.24
relative viability ([4]; first compound 1.581 µM): 1.16
relative viability ([4]; first compound 5 µM): 1.32
relative viability ([4]; first compound 15.81 µM): 1.42
relative viability ([4]; first compound 50 µM): 1.69

COR-L23
relative viability ([1]; first compound 0.5 µM): 0.409
relative viability ([1]; first compound 1.581 µM): 0.455
relative viability ([1]; first compound 5 µM): 0.545
relative viability ([1]; first compound 15.81 µM): 0.453
relative viability ([1]; first compound 50 µM): 0.415
relative viability ([2]; first compound 0.5 µM): 0.989
relative viability ([2]; first compound 1.581 µM): 0.872
relative viability ([2]; first compound 5 µM): 0.947
relative viability ([2]; first compound 15.81 µM): 0.997
relative viability ([2]; first compound 50 µM): 1.02
relative viability ([3]; first compound 0.5 µM): 1.03
relative viability ([3]; first compound 1.581 µM): 0.926
relative viability ([3]; first compound 5 µM): 1.24
relative viability ([3]; first compound 15.81 µM): 1.31
relative viability ([3]; first compound 50 µM): 1.12
relative viability ([4]; first compound 0.5 µM): 0.739
relative viability ([4]; first compound 1.581 µM): 0.813
relative viability ([4]; first compound 5 µM): 0.899
relative viability ([4]; first compound 15.81 µM): 0.961
relative viability ([4]; first compound 50 µM): 0.906

NCI-H1755
relative viability ([1]; first compound 0.5 µM): 0.79
relative viability ([1]; first compound 1.581 µM): 0.656
relative viability ([1]; first compound 5 µM): 0.778
relative viability ([1]; first compound 15.81 µM): 0.734
relative viability ([1]; first compound 50 µM): 0.737
relative viability ([2]; first compound 0.5 µM): 1.02
relative viability ([2]; first compound 1.581 µM): 0.838
relative viability ([2]; first compound 5 µM): 0.933
relative viability ([2]; first compound 15.81 µM): 0.972
relative viability ([2]; first compound 50 µM): 0.878
relative viability ([3]; first compound 0.5 µM): 1.03
relative viability ([3]; first compound 1.581 µM): 0.905
relative viability ([3]; first compound 5 µM): 0.933
relative viability ([3]; first compound 15.81 µM): 0.972
relative viability ([3]; first compound 50 µM): 0.926
relative viability ([4]; first compound 0.5 µM): 0.925
relative viability ([4]; first compound 1.581 µM): 0.877
relative viability ([4]; first compound 5 µM): 0.908
relative viability ([4]; first compound 15.81 µM): 0.956
relative viability ([4]; first compound 50 µM): 0.911

NCI-H1437
relative viability ([1]; first compound 0.5 µM): 0.853
relative viability ([1]; first compound 1.581 µM): 0.862
relative viability ([1]; first compound 5 µM): 0.85
relative viability ([1]; first compound 15.81 µM): 0.844
relative viability ([1]; first compound 50 µM): 0.891
relative viability ([2]; first compound 0.5 µM): 0.904
relative viability ([2]; first compound 1.581 µM): 1.07
relative viability ([2]; first compound 5 µM): 1.18
relative viability ([2]; first compound 15.81 µM): 1.16
relative viability ([2]; first compound 50 µM): 1.05
relative viability ([3]; first compound 0.5 µM): 1.08
relative viability ([3]; first compound 1.581 µM): 1.1
relative viability ([3]; first compound 5 µM): 1.11
relative viability ([3]; first compound 15.81 µM): 1.14
relative viability ([3]; first compound 50 µM): 1.11
relative viability ([4]; first compound 0.5 µM): 0.909
relative viability ([4]; first compound 1.581 µM): 0.926
relative viability ([4]; first compound 5 µM): 1.05
relative viability ([4]; first compound 15.81 µM): 1
relative viability ([4]; first compound 50 µM): 1.05

NCI-H2085
relative viability ([1]; first compound 0.5 µM): 0.853
relative viability ([1]; first compound 1.581 µM): 0.63
relative viability ([1]; first compound 5 µM): 0.822
relative viability ([1]; first compound 15.81 µM): 0.847
relative viability ([1]; first compound 50 µM): 0.873
relative viability ([2]; first compound 0.5 µM): 0.891
relative viability ([2]; first compound 1.581 µM): 0.788
relative viability ([2]; first compound 5 µM): 0.938
relative viability ([2]; first compound 15.81 µM): 0.941
relative viability ([2]; first compound 50 µM): 0.883
relative viability ([3]; first compound 0.5 µM): 1.03
relative viability ([3]; first compound 1.581 µM): 1.04
relative viability ([3]; first compound 5 µM): 1.25
relative viability ([3]; first compound 15.81 µM): 1.03
relative viability ([3]; first compound 50 µM): 1.2
relative viability ([4]; first compound 0.5 µM): 0.91
relative viability ([4]; first compound 1.581 µM): 0.998
relative viability ([4]; first compound 5 µM): 0.973
relative viability ([4]; first compound 15.81 µM): 0.914
relative viability ([4]; first compound 50 µM): 0.917

IA-LM
relative viability ([1]; first compound 0.5 µM): 1.02
relative viability ([1]; first compound 1.581 µM): 1.13
relative viability ([1]; first compound 5 µM): 1.03
relative viability ([1]; first compound 50 µM): 1.06
relative viability ([2]; first compound 0.5 µM): 0.569
relative viability ([2]; first compound 1.581 µM): 0.281
relative viability ([2]; first compound 5 µM): 0.66
relative viability ([2]; first compound 15.81 µM): 0.383
relative viability ([2]; first compound 50 µM): 0.695
relative viability ([3]; first compound 0.5 µM): 0.764
relative viability ([3]; first compound 1.581 µM): 0.79
relative viability ([3]; first compound 5 µM): 0.832
relative viability ([3]; first compound 15.81 µM): 0.798
relative viability ([3]; first compound 50 µM): 0.847
relative viability ([4]; first compound 0.5 µM): 0.878
relative viability ([4]; first compound 1.581 µM): 0.377
relative viability ([4]; first compound 5 µM): 0.811
relative viability ([4]; first compound 15.81 µM): 0.607
relative viability ([4]; first compound 50 µM): 0.887
